From patent US20250179077A1, “QUINAZOLINE COMPOUNDS AND USES THEREOF AS INHIBITORS OF MUTANT KRAS PROTEINS” (AMGEN INC., priority 2022, published 2025)
Where two headings read alike, the source gives them in different places.

Experiments:
[1] = target: His-tagged KRAS G12D protein (Homo sapiens, UniProt P01116, G12D); experiment: KRAS G12D TR-FRET Assay; format: binding
In short: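 His-KRAS G12D (20 nM) was preincubated with titrated compound for 30 min at RT in HEPES pH 7.4 buffer with MgCl2, 10 μM GDP. Biotin-KRPep-2d (20 nM) was then added for 1 h, followed by Eu-anti-His/streptavidin-d2 for 1 h. The 665/615 nm TR-FRET ratio was fitted 4-parameter to give IC50.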

[2] = target: GDP-bound KRAS protein (aa 1-169), containing both G12D and C118A amino acid substitutions (Homo sapiens, UniProt P01116, C118A/G12D); experiment: KRAS G12D Coupled Nucleotide Exchange Assay; format: biochemical
Experimental: KRAS G12D Coupled Nucleotide Exchange Assay
Following compound pre-incubation, purified SOS protein (aa 564-1049) and GTP (Roche 10106399001) were added to the assay wells and incubated for an additional 30 min. […] The assay plates were then read on a PerkinElmer EnVision Multilabel Reader, using AlphaScreen® technology, and data were analyzed using a 4-parameter logistic model to calculate IC50 values.

[3] = test system: Phosphorylation of ERK1/2 in AsPC-1 cells; experiment: Phospho-ERK1/2 MSD Assay; format: cell-based
In short: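 Phospho-ERK1/2 was quantified by MSD whole-cell lysate immunoassay in RIPA lysates made with protease/phosphatase inhibitors. A 4-parameter logistic model gave IC50.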

[4] = Homo sapiens, ASPC1, 2 h, read-out: 2 h p-ERK (AsPC-1 cells), IC50, AsPC-1 cells, 2 h compound treatment

Chain of GDP-bound KRAS protein (aa 1-169), containing both G12D and C118A amino acid substitutions (P01116 1-169 isoform P01116-2 G12D/C118A): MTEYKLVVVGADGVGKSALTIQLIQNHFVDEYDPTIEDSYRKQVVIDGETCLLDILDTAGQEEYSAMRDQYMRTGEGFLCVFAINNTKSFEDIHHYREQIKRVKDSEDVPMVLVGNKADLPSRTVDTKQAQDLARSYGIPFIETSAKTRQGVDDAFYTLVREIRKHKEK
Chain of His-tagged KRAS G12D protein (P01116 1-188 isoform P01116-2 G12D): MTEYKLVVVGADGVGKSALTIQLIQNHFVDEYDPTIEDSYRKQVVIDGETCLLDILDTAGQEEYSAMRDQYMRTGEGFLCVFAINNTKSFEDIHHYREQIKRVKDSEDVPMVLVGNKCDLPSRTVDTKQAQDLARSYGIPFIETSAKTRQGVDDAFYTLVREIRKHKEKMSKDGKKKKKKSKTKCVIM

With `Cc1cc2[nH]ncc2c(-c2c(F)cc3c(N4CCC[C@@](C)(O)C4)nc(OC[C@@]45CCCN4C[C@H](F)C5)nc3c2F)c1[C@H]1C[C@H]1C` (atropisomer, axis not shown; (aS)) [Example 121, (R)-1-((S)-6,8-Difluoro-2-(((2R,7aS)-2-fluorotetrahydro-1H-pyrrolizin-7a(5H)-yl)methoxy)-7-(6-methyl-5-((1S,2R)-2-methylcyclopropyl)-1H-indazol-4-yl)quinazolin-4-yl)-3-methylpiperidin-3-ol bis(2,2,2-trifluoroacetate)] the IC50 [1] was 9 nM, the IC50 [2] was 6 nM and the IC50 [3, 4] was 156 nM.

For `C#Cc1c(F)ccc2cc(O)cc(-c3c(F)cc4c(N5CCC[C@@](C)(O)C5)nc(OC[C@@]56CCCN5C[C@H](F)C6)nc4c3F)c12` (single isomer, unassigned) [Example 14], the IC50 [1] was 1 nM, the IC50 [2] was 2 nM and the IC50 ([3]; read-out: 2 h p-ERK (AsPC-1 cells), IC50, AsPC-1 cells, 2 h compound treatment) was 3 nM.

Work on `C/C=C\c1c(Cl)cc2[nH]ncc2c1-c1c(F)cc2c(N3CCC[C@](O)(C(F)F)C3)nc(OC[C@@]34CCCN3C[C@H](F)C4)nc2c1F` (single isomer, unassigned) [Example 112] yielded an IC50 [1] of 5 nM, an IC50 [2] of 5 nM and an IC50 [3, 4] of 125 nM.

`C/C=C\c1c(C)cc2[nH]ncc2c1-c1ccc2c(N3CCOC[C@@](C)(O)C3)nc(OC[C@@]34CCCN3C[C@H](F)C4)nc2c1F` [Example 106, (6S)-4-(8-Fluoro-2-(((2R,7aS)-2-fluorotetrahydro-1H-pyrrolizin-7a(5H)-yl)methoxy)-7-(6-methyl-5-((Z)-prop-1-en-1-yl)-1H-indazol-4-yl)quinazolin-4-yl)-6-methyl-1,4-oxazepan-6-ol] showed an IC50 [1] of 7 nM, an IC50 [2] of 4 nM and an IC50 [3, 4] of 87 nM.

`C#Cc1c(F)ccc2cc(N)cc(-c3ccc4c(N5CCC[C@@](C)(O)C5)nc(OC[C@@]56CCCN5C[C@H](F)C6)nc4c3F)c12` [Example 65, (R)-1-(7-(3-Amino-8-ethynyl-7-fluoronaphthalen-1-yl)-8-fluoro-2-(((2R,7aS)-2-fluorotetrahydro-1H-pyrrolizin-7a(5H)-yl)methoxy)quinazolin-4-yl)-3-methylpiperidin-3-ol] was tested, and the IC50 [1] was 11 nM, the IC50 [2] was 6 nM and the IC50 [3, 4] was 260 nM.

For `CCc1c(F)ccc2cc(N)cc(-c3c(F)cc4c(N5CCC[C@@](C)(O)C5)nc(OC[C@@]56CCCN5C[C@H](F)C6)nc4c3F)c12` (single isomer, unassigned) [Example 62], the IC50 [1] was 17 nM, the IC50 [2] was 2 nM and the IC50 [3, 4] was 281 nM.

`Oc1cc(Cl)c(C2CC2)c(-c2ccc3c(N4CCCOCC4)nc(OC[C@@]45CCCN4C[C@H](F)C5)nc3c2F)c1` [Example 7, 3-Chloro-4-cyclopropyl-5-(8-fluoro-2-(((2R,7a.S)-2-fluorotetrahydro-1H-pyrrolizin-7a(5H)-yl)methoxy)-4-(1,4-oxazepan-4-yl)quinazolin-7-yl)phenol] gave an IC50 [1] of 12 nM, an IC50 [2] of 11 nM and an IC50 [3, 4] of 812 nM.

Molecule `CCc1c(F)ccc2cc(O)cc(-c3ccc4c(N5CCCC6(CC(=O)N6)C5)nc(OC[C@@]56CCCN5C[C@H](F)C6)nc4c3F)c12` (stereo partly drawn) [Example 51, 6-(7-(8-Ethyl-7-fluoro-3-hydroxynaphthalen-1-yl)-8-fluoro-2-(((2R,7aS)-2-fluorotetrahydro-1H-pyrrolizin-7a(5H)-yl)methoxy)quinazolin-4-yl)-1,6-diazaspiro[3.5]nonan-2-one] has an IC50 [1] of 3 nM, an IC50 [2] of 4 nM and an IC50 [3, 4] of 47 nM.

With `CCc1c(F)ccc2cc(O)cc(-c3c(F)cc4c(N5CCCC(O)(C(F)F)C5)nc(OC[C@@]56CCCN5C[C@H](F)C6)nc4c3F)c12` (single isomer, unassigned) [Example 20] the IC50 [1] was 2 nM, the IC50 [2] was 2 nM and the IC50 [3, 4] was 58 nM.

For `CCc1c(F)ccc2cc(O)cc(-c3ccc4c(N5CCC[C@]6(CNC(=O)O6)C5)nc(OC[C@@]56CCCN5C[C@H](F)C6)nc4c3F)c12` (single isomer, unassigned) [Example 88], the IC50 [1] was 15 nM, the IC50 [2] was 6 nM and the IC50 [3, 4] was 13 nM.

`Oc1cc(-c2ccc3c(N4CCCOCC4)nc(OC[C@]45CCCN4C[C@H](F)C5)nc3c2F)c2ccccc2c1` [Example 41, 4-(8-Fluoro-2-(((2R,7aR)-2-fluorotetrahydro-1H-pyrrolizin-7a(5H)-yl)methoxy)-4-(1,4-oxazepan-4-yl)quinazolin-7-yl)naphthalen-2-ol] showed an IC50 [1] of 23 nM, an IC50 [2] of 23 nM and an IC50 [3, 4] of 1470 nM.

Molecule `CCc1c(F)ccc2cc(O)cc(-c3c(Cl)cc4c(N5CCC[C@@](C)(O)C5)nc(OC[C@@]56CCCN5C[C@H](F)C6)nc4c3F)c12` [Example 25, (3R)-1-(6-Chloro-7-(8-ethyl-7-fluoro-3-hydroxynaphthalen-1-yl)-8-fluoro-2-(((2R,7aS)-2-fluorotetrahydro-1H-pyrrolizin-7a(5H)-yl)methoxy)quinazolin-4-yl)-3-methylpiperidin-3-ol] has an IC50 [1] of 4 nM, an IC50 [2] of 5 nM and an IC50 [3, 4] of 146 nM.

For `CCc1c(F)ccc2cc(O)cc(-c3ccc4c(N5CCC[C@]6(CCO6)C5)nc(OC[C@@]56CCCN5C[C@H](F)C6)nc4c3F)c12` (single isomer, unassigned) [Example 76], the IC50 [1] was 5 nM, the IC50 [2] was 3 nM and the IC50 [3, 4] was 9 nM.

With `CCc1c(F)ccc2cc(O)cc(-c3c(O)cc4c(N5CCCOCC5)nc(OC[C@@]56CCCN5C[C@H](F)C6)nc4c3F)c12` [Example 26, 7-(8-Ethyl-7-fluoro-3-hydroxynaphthalen-1-yl)-8-fluoro-2-(((2R,7aS)-2-fluorotetrahydro-1H-pyrrolizin-7a(5H)-yl)methoxy)-4-(1,4-oxazepan-4-yl)quinazolin-6-ol] the IC50 [1] was 4 nM, the IC50 [2] was 4 nM and the IC50 [3, 4] was 270 nM.

In the case of `C/C=C\c1c(Cl)cc2[nH]ncc2c1-c1ccc2c(N3CCC[C@](O)(CF)C3)nc(OC[C@@]34CCCN3C[C@H](F)C4)nc2c1F` (single isomer, unassigned) [Example 109], the IC50 [1] is reported as 4 nM, the IC50 [2] is reported as 4 nM and the IC50 [3, 4] is reported as 100 nM.

Molecule `Oc1cc(-c2ccc3c(N4CCCOCC4)nc(OCC45CCCN4CCC5)nc3c2F)c2ccccc2c1` [Example 43, 4-(8-Fluoro-4-(1,4-oxazepan-4-yl)-2-((tetrahydro-1H-pyrrolizin-7a(5H)-yl)methoxy)quinazolin-7-yl)naphthalen-2-ol] has an IC50 [1] of 22 nM, an IC50 [2] of 13 nM and an IC50 [3, 4] of 1670 nM.

With `C#Cc1cccc2cc(O)cc(-c3ccc4c(N5CCC[C@@](C)(O)C5)nc(OC[C@@]56CCCN5C[C@H](F)C6)nc4c3F)c12` [Example 50, (R)-1-(7-(8-Ethynyl-3-hydroxynaphthalen-1-yl)-8-fluoro-2-(((2R,7a.S)-2-fluorotetrahydro-1H-pyrrolizin-7a(5H)-yl)methoxy)quinazolin-4-yl)-3-methylpiperidin-3-ol] the IC50 [1] was 3 nM, the IC50 [2] was 3 nM and the IC50 [3, 4] was 23 nM.

Molecule `C/C=C\c1c(Cl)cc2[nH]ncc2c1-c1ccc2c(N3CCOC[C@@](C)(O)C3)nc(OC[C@@]34CCCN3C[C@H](F)C4)nc2c1F` [Example 105, (6S)-4-(7-(6-Chloro-5-((Z)-prop-1-en-1-yl)-1H-indazol-4-yl)-8-fluoro-2-(((2R,7aS)-2-fluorotetrahydro-1H-pyrrolizin-7a(5H)-yl)methoxy)quinazolin-4-yl)-6-methyl-1,4-oxazepan-6-ol] has an IC50 [1] of 3 nM, an IC50 [2] of 3 nM and an IC50 [3, 4] of 32 nM.

`C[C@@H]1C[C@@H]1c1c(Cl)cc2[nH]ncc2c1-c1c(F)cc2c(N3CCC[C@]4(CNC(=O)O4)C3)nc(OC[C@@]34CCCN3C[C@H](F)C4)nc2c1F` (relative stereo) [Example 111, (5S)-7-(7-(6-Chloro-5~(2-methylcyclopropyl)-1H-indazol-4-yl)-6,8-difluoro-2-(((2R,7aS)-2-fluorotetrahydro-1H-pyrrolizin-7a(5H)-yl)methoxy)quinazolin-4-yl)-1-oxa-3,7-diazaspiro[4.5]decan-2-one 2,2,2-trifluoroacetate] was tested, and the IC50 [1] was 5 nM, the IC50 [2] was 4 nM and the IC50 [3, 4] was 55 nM.

`CC1(O)COCCN(c2nc(OC[C@@]34CCCN3C[C@H](F)C4)nc3c(F)c(-c4cc(O)cc5ccc(F)c(F)c45)c(F)cc23)C1` (single isomer, unassigned) [Example 32] was tested, and the IC50 [1] was 5 nM, the IC50 [2] was 3 nM and the IC50 [3, 4] was 25 nM.

Work on `C#Cc1cccc2cc(O)cc(-c3c(F)cc4c(N5CCC[C@@](C)(O)C5)nc(OC[C@@]56CCCN5C[C@H](F)C6)nc4c3F)c12` (single isomer, unassigned) [Example 12] yielded an IC50 [1] of 1 nM, an IC50 [2] of 1 nM and an IC50 [3, 4] of 5 nM.

With `C#Cc1c(F)ccc2cc(O)cc(-c3ccc4c(N5CC6CC(O)C(C6)C5)nc(OC[C@@]56CCCN5C[C@H](F)C6)nc4c3F)c12` (single isomer, unassigned) [Example 17] the IC50 [1] was 11 nM, the IC50 [2] was 9 nM and the IC50 [3, 4] was 744 nM.

In the case of `CCc1c(F)ccc2cc(O)cc(-c3ccc4c(N5CCCC6(CNC(=O)O6)C5)nc(OC[C@@]56CCCN5C[C@H](F)C6)nc4c3F)c12` (stereo partly drawn) [Example 54, 7-(7-(8-Ethyl-7-fluoro-3-hydroxynaphthalen-1-yl)-8-fluoro-2-(((2R,7aS)-2-fluorotetrahydro-1H-pyrrolizin-7a(5H)-yl)methoxy)quinazolin-4-yl)-1-oxa-3,7-diazaspiro[4.5]decan-2-one], the IC50 [1] is reported as 3 nM, the IC50 [2] is reported as 4 nM and the IC50 [3, 4] is reported as 23 nM.
